Results from publication PMC7385626 (Scientific Reports, 2020).

What was measured:
St. pyogenez ATCC176 = assay: Serial microdilution assay (MIC); type: cell-based, Steptococcus Pyogerez
Method: (§1) […]. […] Four types of gram-positive bacterial strains (St. pyogenez, B. subtilis, B. cereus, S. aureus) and five types of the gram-negative (S. enteridis, E. aerogenes, P. aeruginosa, E. coli, and S. gallinarum) were sensitive to 4 and 1. […]. The minimal inhibitory concentration value was studied for the microorganism cells, which evaluated to sensitive the substances and they tested in the disc-diffusion method. Inoculate of microorganism was prepared utilizing 12 h suspensions and broth cultures were adjusted to 0.5 McFarland turbidity standard. Each substance was dissolved in 10% dimethyl sulfoxide which diluted to the highest concentration (1000 µg/mL) for testing. […]. Also, prepared suspensions for standard microorganisms were added to each dilution in a 1:1 ratio. Growth act of microorganism cells was determined visually after incubation at 36 °C. The minimum concentration was no visible growth which was taken as the MIC.

B. subtilis ATCC6633 = assay: Serial microdilution assay (MIC); type: cell-based, Bacillus Subtilis
Method: as §1

[1] = tested on: bacterial strains (four gram-positive, five gram-negative); assay: Disc diffusion assay, range over the bacterial strains; type: cell-based
Method: […]. […] Four types of gram-positive bacterial strains (St. pyogenez, B. subtilis, B. cereus, S. aureus) and five types of the gram-negative (S. enteridis, E. aerogenes, P. aeruginosa, E. coli, and S. gallinarum) were sensitive to 4 and 1. […]. In this study, 10 microbial cultures of this part, belonging to ten types of bacterial were used. The culture was grown in Mueller–Hinton Broth (Merck) for all the bacterial strains at 36 °C. Antimicrobial test was carried out by using disc-diffusion assay utilizing 100 µL of suspension with 10^8 CFU/mL of bacteria and 10^6 CFU/mL of yeast spread on Nutrient Agar and Potato Dextrose Agar, respectively. Also, the blank disc (Oxoid = 6 mm in diameter) was impregnated with 20 µL of each substance (105 µg/disc) and placed on the inoculated agar. Negative controls ([…]) were prepared using the same solvent (water) employed to dissolve each substance. […]. The inoculated plate was incubated at 36 °C for clinical bacterial strains. Antimicrobial activities were evaluated by obtaining the zone of inhibitory effect against the test organisms.

E. aerogenes ATCC2924 = assay: Serial microdilution assay (MIC); type: cell-based, Enterobacter Aerogenes
Method: as §1

S. enteridis ATCC13076 = assay: Serial microdilution assay (MIC); type: cell-based, Salmonella Enteritidis
Method: as §1

S. aureus ATCC29213 = assay: Serial microdilution assay (MIC); type: cell-based, Staphylococcus aureus
Method: as §1

B. cereus DSM 4312 = assay: Serial microdilution assay (MIC); type: cell-based, Bacillus Cereus
Method: as §1

P. aeruginosa ATCC9027 = assay: Serial microdilution assay (MIC); type: cell-based, Pseudomonas Aureginosa
Method: as §1

S. gallinarum = assay: Serial microdilution assay (MIC); type: cell-based, Salmonella Gallinarum
Method: as §1

[2] = tested on: bacterial strains (four gram-positive, five gram-negative); assay: Serial microdilution assay (MIC), range over the bacterial strains; type: cell-based
Method: as §1

E. coli 111 = assay: Serial microdilution assay (MIC); type: cell-based, Escherichia coli
Method: as §1

[Cd(N-bishydeten)]4[Ag(CN)2]8[Ag(CN)]2 [Complex 4]
Minimum-inhibitory concentrations (MIC), St. pyogenez ATCC176 (St. pyogenez ATCC176): 31.25 ± 9.02 µg/mL
Minimum-inhibitory concentrations (MIC), B. subtilis ATCC6633 (B. subtilis ATCC6633): 31.25 ± 0.0 µg/mL
inhibition zones, range over the bacterial strains [1]: 25–37 mm
Minimum-inhibitory concentrations (MIC), E. aerogenes ATCC2924 (E. aerogenes ATCC2924): 125 ± 53.40 µg/mL
Minimum-inhibitory concentrations (MIC), S. enteridis ATCC13076 (S. enteridis ATCC13076): 62.50 ± 0.14 µg/mL
Minimum-inhibitory concentrations (MIC), S. aureus ATCC29213 (S. aureus ATCC29213): 62.50 ± 0.0 µg/mL
Minimum-inhibitory concentrations (MIC), B. cereus DSM 4312 (B. cereus DSM 4312): 62.50 ± 18.04 µg/mL
Minimum-inhibitory concentrations (MIC), P. aeruginosa ATCC9027 (P. aeruginosa ATCC9027): 62.50 ± 0.0 µg/mL
Minimum-inhibitory concentrations (MIC), S. gallinarum (S. gallinarum): 125 ± 0.0 µg/mL
MIC, joint range for 4 and 1 over the strains [2]: 15.62 to 125 µg/mL
MIC, range over the bacterial strains [2]: 31.25 to 125 µg/mL
Minimum-inhibitory concentrations (MIC), E. coli 111 (E. coli 111): 31.25 ± 0.0 µg/mL
